Test results published in patent publication US12685312B2, “Sulfonamide apyrase inhibitors” (Texas Crop Science, Inc., priority 2022, dated 2026).

System: apyrase
Experiment: Screen for apyrase inhibitors (Method 1, in vitro phosphate-release absorbance assay)
Format: biochemical
Conditions: inhibitor conc at 1 mM stock, 1 hr room temperature, absorbance 630 nm; rounded average of two assay results
Summary of the method: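 Phosphate-release colorimetric assay (Windsor method) in 60 mM Hepes, 3 mM MgCl2, 3 mM CaCl2, 3 mM ATP, pH 6.5, with compound or DMSO control added. Released phosphate developed with ammonium molybdate and ascorbic acid/TCA, then stopped with citrate/acetic acid.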

Row | % Inhibition of Apyrase [%] | Structure (SMILES)
1 | 58 | Cc1cc(F)c2c(c1)CCCN2C(=O)c1cccc(S(=O)(=O)N2CCc3ccccc32)c1 [I-493, (8-fluoro-6-methyl-3,4-dihydroquinolin-1(2H)-yl)(3-(indolin-1-ylsulfonyl)phenyl)methanone]
2 | 57 | CC1Cc2ccccc2N1S(=O)(=O)c1cccc(C(=O)N2CCc3cccc(F)c32)c1 (stereo not drawn) [I-494, (7-fluoroindolin-1-yl)(3-((2-methylindolin-1-yl)sulfonyl)phenyl)methanone]
3 | 57 | O=C(c1ccc(Cl)c(S(=O)(=O)N2CCc3ccccc32)c1)N1CCc2cc([N+](=O)[O-])ccc21 [I-495, (4-chloro-3-(indolin-1-ylsulfonyl)phenyl)(5-nitroindolin-1-yl)methanone]
4 | 57 | O=C(Nc1cc2c(cc1Cl)OCO2)c1ccc(Cl)c(S(=O)(=O)N2CCc3ccccc32)c1 [I-496, 4-chloro-N-(6-chlorobenzo[d][1,3]dioxol-5-yl)-3-(indolin-1-ylsulfonyl)benzamide]
5 | 57 | Cc1ccc(F)c(NC(=O)c2cccc(S(=O)(=O)N3c4ccccc4CC3C)c2)c1 (stereo not drawn) [I-497, N-(2-fluoro-5-methylphenyl)-3-((2-methylindolin-1-yl)sulfonyl)benzamide]
6 | 57 | O=C(c1cccc(S(=O)(=O)N2CCc3ccccc32)c1)N1CCCc2ccccc21 [I-498, (3,4-dihydroquinolin-1(2H)-yl)(3-(indolin-1-ylsulfonyl)phenyl)methanone]
7 | 57 | COc1ccc(S(=O)(=O)N2CCc3ccccc32)cc1C(=O)Nc1cccc(C)c1 [I-499, 5-(indolin-1-ylsulfonyl)-2-methoxy-N-(m-tolyl)benzamide]
8 | 57 | COc1cccc(NC(=O)c2ccc(Cl)c(S(=O)(=O)N3CCc4ccccc43)c2)c1 [I-500, 4-chloro-3-(indolin-1-ylsulfonyl)-N-(3-methoxyphenyl)benzamide]
9 | 57 | Cc1ccc(NC(=O)c2cccc(S(=O)(=O)N3CCc4ccccc43)c2)cc1 [I-501, 3-(indolin-1-ylsulfonyl)-N-(p-tolyl)benzamide]
10 | 57 | Cc1ccc(NC(=O)c2cccc(S(=O)(=O)N(C)c3ccc(C)cc3)c2)cc1 [I-502, 3-(N-methyl-N-(p-tolyl)sulfamoyl)-N-(p-tolyl)benzamide]
11 | 57 | O=C(Nc1ccc(Cl)cc1)c1cccc(S(=O)(=O)N2CCc3ccccc32)c1 [I-503, N-(4-chlorophenyl)-3-(indolin-1-ylsulfonyl)benzamide]
12 | 57 | Cc1ccc(N(C)S(=O)(=O)c2cccc(C(=O)Nc3ccc4c(c3)CCC4)c2)cc1 [I-504, N-(2,3-dihydro-1H-inden-5-yl)-3-(N-methyl-N-(p-tolyl)sulfamoyl)benzamide]
13 | 57 | COc1ccc(S(=O)(=O)N2CCc3ccccc32)cc1C(=O)Nc1ccc(C(F)(F)F)cc1 [I-505, 5-(indolin-1-ylsulfonyl)-2-methoxy-N-(4-(trifluoromethyl)phenyl)benzamide]
14 | 57 | CCOC(=O)c1c(NC(=O)c2cccc(S(=O)(=O)Nc3ccc(Cl)cc3)c2)sc2c1CCCC2 [I-506, ethyl 2-(3-(N-(4-chlorophenyl)sulfamoyl)benzamido)-4,5,6,7-tetrahydrobenzo[b]thiophene-3-carboxylate]
15 | 57 | CCOC(=O)c1c(NC(=O)c2cccc(S(=O)(=O)Nc3cccc(Cl)c3)c2)sc2c1CCCC2 [I-507, ethyl 2-(3-(N-(3-chlorophenyl)sulfamoyl)benzamido)-4,5,6,7-tetrahydrobenzo[b]thiophene-3-carboxylate]
16 | 57 | Cc1ccc(NS(=O)(=O)c2cccc(C(=O)Nc3c(C)cc(C)cc3C)c2)c(C)c1 [I-508, 3-(N-(2,4-dimethylphenyl)sulfamoyl)-N-mesitylbenzamide]
17 | 56 | COc1ccc2c(c1)CCCN2C(=O)c1cccc(S(=O)(=O)N2CCc3ccccc32)c1 [I-509, (3-(indolin-1-ylsulfonyl)phenyl)(6-methoxy-3,4-dihydroquinolin-1(2H)-yl)methanone]
18 | 56 | Cc1cccc2c1N(C(=O)c1cccc(S(=O)(=O)N3CCc4ccccc43)c1)CCC2 [I-510, (3-(indolin-1-ylsulfonyl)phenyl)(8-methyl-3,4-dihydroquinolin-1(2H)-yl)methanone]
19 | 56 | COc1ccc(S(=O)(=O)N2CCc3ccccc32)cc1C(=O)Nc1ccc2c(c1)OCO2 [I-511, N-(benzo[d][1,3]dioxol-5-yl)-5-(indolin-1-ylsulfonyl)-2-methoxybenzamide]
20 | 56 | O=C(Nc1ccc(F)cc1)c1cccc(S(=O)(=O)N2CCc3ccccc32)c1 [I-512, N-(4-fluorophenyl)-3-(indolin-1-ylsulfonyl)benzamide]
21 | 56 | O=C(Nc1ccc(F)cc1)c1ccc(Cl)c(S(=O)(=O)N2CCc3ccccc32)c1 [I-513, 4-chloro-N-(4-fluorophenyl)-3-(indolin-1-ylsulfonyl)benzamide]

Row | % Inhibition of Apyrase [%] | Structure (SMILES)
22 | 56 | COc1ccc(NC(=O)c2cccc(S(=O)(=O)N(C)c3ccc(OC)cc3)c2)cc1 [I-514, N-(4-methoxyphenyl)-3-(N-(4-methoxyphenyl)-N-methylsulfamoyl)benzamide]
23 | 56 | O=C(Nc1cccc(Cl)c1)c1cccc(S(=O)(=O)N2CCc3ccccc32)c1 [I-515, N-(3-chlorophenyl)-3-(indolin-1-ylsulfonyl)benzamide]
24 | 56 | C=CCN(c1ccccc1Cl)S(=O)(=O)c1cc(C(=O)N2CCc3ccccc32)ccc1Cl [I-516, N-allyl-2-chloro-N-(2-chlorophenyl)-5-(indoline-1-carbonyl)benzenesulfonamide]
25 | 56 | Cc1ccc(F)cc1NC(=O)c1cccc(S(=O)(=O)N2CCc3ccccc32)c1 [I-517, N-(5-fluoro-2-methylphenyl)-3-(indolin-1-ylsulfonyl)benzamide]
26 | 56 | Cc1cccc(NC(=O)c2cc(S(=O)(=O)Nc3cccc(C)c3)ccc2Cl)c1 [I-518, 2-chloro-N-(m-tolyl)-5-(N-(m-tolyl)sulfamoyl)benzamide]
27 | 56 | O=C(Nc1ccc(Cl)cc1Cl)c1cccc(S(=O)(=O)Nc2ccc(Cl)cc2)c1 [I-519, 3-(N-(4-chlorophenyl)sulfamoyl)-N-(2,4-dichlorophenyl)benzamide]
28 | 56 | COc1ccc(Cl)cc1NS(=O)(=O)c1cccc(C(=O)N2CCc3ccccc32)c1 [I-520, N-(5-chloro-2-methoxyphenyl)-3-(indoline-1-carbonyl)benzenesulfonamide]
29 | 56 | O=C(c1cccc(S(=O)(=O)Nc2ccc(OCc3ccccc3)cc2)c1)N1CCc2ccccc21 [I-521, N-(4-(benzyloxy)phenyl)-3-(indoline-1-carbonyl)benzenesulfonamide]
30 | 55 | CC1Cc2ccccc2N1S(=O)(=O)c1cccc(C(=O)Nc2ccc3c(c2)OCO3)c1 (stereo not drawn) [I-522, N-(benzo[d][1,3]dioxol-5-yl)-3-((2-methylindolin-1-yl)sulfonyl)benzamide]
31 | 55 | O=C(Nc1ccc2c(c1)OCCO2)c1cccc(S(=O)(=O)N2CCc3ccccc32)c1 [I-523, N-(2,3-dihydrobenzo[b][1,4]dioxin-6-yl)-3-(indolin-1-ylsulfonyl)benzamide]
32 | 55 | O=C(Nc1ccc2c(c1)OCCO2)c1ccc(Cl)c(S(=O)(=O)N2CCc3ccccc32)c1 [I-524, 4-chloro-N-(2,3-dihydrobenzo[b][1,4]dioxin-6-yl)-3-(indolin-1-ylsulfonyl)benzamide]
33 | 55 | COc1ccc(S(=O)(=O)N2CCc3ccccc32)cc1C(=O)Nc1cccc(Br)c1 [I-525, N-(3-bromophenyl)-5-(indolin-1-ylsulfonyl)-2-methoxybenzamide]
34 | 55 | CC1Cc2ccccc2N1S(=O)(=O)c1cccc(C(=O)Nc2ccc(S(=O)(=O)N(C)C)cc2)c1 (stereo not drawn) [I-526, N-(4-(N,N-dimethylsulfamoyl)phenyl)-3-((2-methylindolin-1-yl)sulfonyl)benzamide]
35 | 55 | O=C(Nc1cccc(S(=O)(=O)N2CCOCC2)c1)c1cccc(S(=O)(=O)N2CCc3ccccc32)c1 [I-527, 3-(indolin-1-ylsulfonyl)-N-(3-(morpholinosulfonyl)phenyl)benzamide]
36 | 55 | CN(c1ccc(F)cc1)S(=O)(=O)c1ccc(Cl)c(C(=O)Nc2ccc(F)c(Cl)c2)c1 [I-528, 2-chloro-N-(3-chloro-4-fluorophenyl)-5-(N-(4-fluorophenyl)-N-methylsulfamoyl)benzamide]
37 | 55 | NS(=O)(=O)c1cccc(NC(=O)c2cccc(S(=O)(=O)N3CCc4ccccc43)c2)c1 [I-529, 3-(indolin-1-ylsulfonyl)-N-(3-sulfamoylphenyl)benzamide]
38 | 55 | COc1cc(OC)c(NS(=O)(=O)c2cc(C(=O)Nc3ccc(OC(F)(F)F)cc3)ccc2C)cc1Cl [I-530, 3-(N-(5-chloro-2,4-dimethoxyphenyl)sulfamoyl)-4-methyl-N-(4-(trifluoromethoxy)phenyl)benzamide]
39 | 55 | O=C(Nc1ccc2c(c1)OC1(CCCC1)O2)c1cccc(S(=O)(=O)Nc2ccc3c(c2)OCO3)c1 [I-531, 3-(N-(benzo[d][1,3]dioxol-5-yl)sulfamoyl)-N-(spiro[benzo[d][1,3]dioxole-2,1′-cyclopentan]-5-yl)benzamide]
40 | 55 | N#Cc1cccc(NC(=O)c2cccc(S(=O)(=O)Nc3cc(C(F)(F)F)ccc3Cl)c2)c1 [I-532, 3-(N-(2-chloro-5-(trifluoromethyl)phenyl)sulfamoyl)-N-(3-cyanophenyl)benzamide]
41 | 54 | CC1Cc2ccccc2N1C(=O)c1cccc(S(=O)(=O)Nc2ccccc2F)c1 (stereo not drawn) [I-533, N-(2-fluorophenyl)-3-(2-methylindoline-1-carbonyl)benzenesulfonamide]
42 | 54 | CC1Cc2ccccc2N1S(=O)(=O)c1cccc(C(=O)Nc2ccccc2C(C)(C)C)c1 (stereo not drawn) [I-534, N-(2-(tert-butyl)phenyl)-3-((2-methylindolin-1-yl)sulfonyl)benzamide]
